# Assay results as given in patent US20200038355A1, “ANTIOXIDANTS FOR USE IN OPHTHALMIC SURGERY” (Case Western Reserve University, priority 2017, published 2020).
# “Also recorded” adds a separate entry of the source. Where a name gives a salt, the structure may show the parent alone.
# B1: TGFβ2: Human TGFβ2, profibrogenic cytokine purchased from Sigma-Aldrich (protein, UniProt P61812 303-414, looked up)
# Transforming growth factor …: ALDAAYCFRNVQDNCCLRPLYIDFKRDLGWKWIHEPKGYNANFCAGACPYLWSSDTQHSRVLSLYNTINPEASASPCCVSQDLEPLTILYYIGKTPKIEQLSNMIVKSCKCS
# Assays:
# Type in all cases: cell-based
# [1] = tested on: mouse lens ex vivo culture; assay: Mouse whole lens ex vivo culture, lens capsule immunoblot
# Procedure: The isolated intact lens was rinsed three times with HBSS and then cultured in 12-well-plates with serum-free Medium 199 (ThermoFisher) with 50 unit/ml penicillin streptomycin at 37° C. in 5% CO2 incubator, as described above. The lens explant was cultured following the same procedure as described by a previous report. […] et al., Exp Eye Res 71, 591-597 (2000). In brief, the mouse lens was placed in an anterior-toposterior orientation with the anterior attached to the culture dish. The lens posterior capsule was torn/cut by the tip of extra-fine forceps and then peeled towards anterior capsule and pinned on the plastic culture dish. The lens fiber mass was removed thereafter. The explant was cultured in serum-free MEM medium supplied with 50 unit/ml penicillin streptomycin at 37° C. in 5% CO2 incubator as described above. Only healthy growing explants were used for the described study and any unhealthy looking explants, such as folded explants or those with cell detachment, were discarded. Cells were placed 24 hr before the treatment and fresh medium was replaced immediately before the treatment. The indicated concentrations of BSO, DMF, NAC, GSH-EE or TGFβ2 were added to fresh medium and incubated at various time intervals as indicated. After treatment time, the cells were harvested after three washes with ice-cold PBS and subjected to immunoblot or other assays as described below. For whole lens culture, the serum-free medium with or without BSO, NAC, GSH-EE or TGFβ2 was incubated immediately after isolation for 48 hr and the whole lens or lens capsule was collected for further analysis. For lens explant culture, 48 hr after explant culture, various stimulates were used in fresh serum-free medium for an additional 48 hr, and the explant was fixed with 10% formaldehyde for 10 min before immunofluorescence stain, as described below. The cells, whole lens, lens capsule, and lens fibers were collected and lysed in lysis buffer containing 20 mM Tris pH 7.5, 1 mM EDTA, 1 mM EGTA, 150 mM NaCl, 1% Triton X-100, 2.5 mM sodium pyrophosphate, 1 mM bα-Glycerolphosphate, 1 mM Na3VO4, 1 mg/ml Leupeptin, 1 mM PMSF on ice for 10 min. The protein concentration from the supernatant was determined by protein BCA assay (ThermoFisher). The protein extract was further processed for immunoblot analysis and probed for αSMA, collagen I, vimentin, phosphorylated Smad2, phosphorylated Smad3, phosphorylated GSK-3β and (β-catenin. All data were normalized to the level of GAPDH.
# HLE-B3 cells = assay: EMT marker / Wnt-β-catenin immunoblot in human lens epithelial cell line HLE-B3; settings: for type I collagen expression / vimentin expression: 24 h challenge, 25 μM DMF or both
# Procedure: (§1) Cell Culture—Human lens epithelial cells (HLE-B3) were grown in DMEM medium with 10% fetal bovine serum (FBS), 2 mM glutamine and 50 unit/ml penicillin streptomycin (ThermoFisher, Waltham, Mass.) at 37° C. in a humidified 5% CO2 incubator. For primary porcine lens epithelial cell culture, pig eyes were collected at a local slaughterhouse within two hours of postmortem time, placed on ice and transported to the lab (about 1 hr) for immediate processing. First, the isolated lens was incubated with 2 ml of 0.25% trypsin at 37° C. for 2 min to remove any attached non-lens cells. Then, after a brief rinse with HBSS, the lens capsule was isolated and rinsed three times with HBSS before incubation with 2 ml of 0.5% trypsin for 5 min. 5 ml of complete DMEM medium was added and tissue was disrupted by pipetting up and down 10-15 times with a pipette fitted with a 1000 μl tip. The tissue homogenate was then passed through a 100 μm cell strainer. The cells were collected by low speed centrifugation at 150×g and placed in a 35 mm laminin-coated tissue culture dish with DMEM medium supplied with 10% FBS, 2 mM glutamine and 50 unit/ml penicillin streptomycin (ThernoFisher). The cells were cultured at 37° C. in a humidified incubator with 5% CO2.
# (§2) Cells were placed 24 hr before the treatment and fresh medium was replaced immediately before the treatment. The indicated concentrations of BSO, DMF, NAC, GSH-EE or TGFβ2 were added to fresh medium and incubated at various time intervals as indicated. After treatment time, the cells were harvested after three washes with ice-cold PBS and subjected to immunoblot or other assays as described below. For whole lens culture, the serum-free medium with or without BSO, NAC, GSH-EE or TGFβ2 was incubated immediately after isolation for 48 hr and the whole lens or lens capsule was collected for further analysis. For lens explant culture, 48 hr after explant culture, various stimulates were used in fresh serum-free medium for an additional 48 hr, and the explant was fixed with 10% formaldehyde for 10 min before immunofluorescence stain, as described below.
# The cells, whole lens, lens capsule, and lens fibers were collected and lysed in lysis buffer containing 20 mM Tris pH 7.5, 1 mM EDTA, 1 mM EGTA, 150 mM NaCl, 1% Triton X-100, 2.5 mM sodium pyrophosphate, 1 mM bα-Glycerolphosphate, 1 mM Na3VO4, 1 mg/ml Leupeptin, 1 mM PMSF on ice for 10 min. The protein concentration from the supernatant was determined by protein BCA assay (ThermoFisher). The protein extract was further processed for immunoblot analysis and probed for αSMA, collagen I, vimentin, phosphorylated Smad2, phosphorylated Smad3, phosphorylated GSK-3β and (β-catenin. All data were normalized to the level of GAPDH.
# [2] = tested on: primary porcine lens epithelial cells; assay: αSMA expression in primary cultured porcine lens epithelial cells (pLEC)
# Procedure: as §1
# Cells were placed 24 hr before the treatment and fresh medium was replaced immediately before the treatment. The indicated concentrations of BSO, DMF, NAC, GSH-EE or TGFβ2 were added to fresh medium and incubated at various time intervals as indicated. After treatment time, the cells were harvested after three washes with ice-cold PBS and subjected to immunoblot or other assays as described below. […]
# The cells, whole lens, lens capsule, and lens fibers were collected and lysed in lysis buffer containing 20 mM Tris pH 7.5, 1 mM EDTA, 1 mM EGTA, 150 mM NaCl, 1% Triton X-100, 2.5 mM sodium pyrophosphate, 1 mM bα-Glycerolphosphate, 1 mM Na3VO4, 1 mg/ml Leupeptin, 1 mM PMSF on ice for 10 min. The protein concentration from the supernatant was determined by protein BCA assay (ThermoFisher). […]
# lens explant = assay: Mouse lens explant culture (ex vivo PCO mimetic model), αSMA immunofluorescence; settings: 1 ng/ml TGFβ2, 48 hr stimulation
# Procedure: The isolated intact lens was rinsed three times with HBSS and then cultured in 12-well-plates with serum-free Medium 199 (ThermoFisher) with 50 unit/ml penicillin streptomycin at 37° C. in 5% CO2 incubator, as described above. The lens explant was cultured following the same procedure as described by a previous report. Tamiya et al., Exp Eye Res 71, 591-597 (2000). In brief, the mouse lens was placed in an anterior-toposterior orientation with the anterior attached to the culture dish. The lens posterior capsule was torn/cut by the tip of extra-fine forceps and then peeled towards anterior capsule and pinned on the plastic culture dish. The lens fiber mass was removed thereafter. The explant was cultured in serum-free MEM medium supplied with 50 unit/ml penicillin streptomycin at 37° C. in 5% CO2 incubator as described above. Only healthy growing explants were used for the described study and any unhealthy looking explants, such as folded explants or those with cell detachment, were discarded.
# as §2, with “For lens explant culture, 48 hr after explant culture, various stimulates were used in fresh serum-free medium for an additional 48 hr, and the explant was fixed with 10% formaldehyde for 10 min before immunofluorescence stain, as described below.” left out
# Confocal microscope—All confocal images were collected by a Leica SP8 gSTED confocal microscope equipped with two 3 Hyd SP GaAsP detectors and the AOBS system lasers include a 405 nm, Argon (458, 476, 488, 496, 514 nm), a tunable white light (470 to 670 nm), and a 592 nm STED depletion laser. For proper comparison, each channel of fluorescence was adjusted to the highest sensitivity/intensity but without over saturation from samples with the strongest signal. […]
# [3] = mouse lens ex vivo culture, 500 μM BSO, 48 hrs
# [4] = HLE-B3 cells, 24 hr treatment with increasing concentration of BSO or DMF
# [5] = HLE-B3 cells, 24 hr, 500 μM BSO or 25 μM DMF
# [6] = lens capsule after ex vivo lens culture, BSO plus XAV939, 48 hr
# [7] = HLE-B3 cells, XAV939 co-incubated with 500 μM BSO, 24 hr
molecule,measurement,setting,value
"CCCCS(=N)(=O)CCC(N)C(=O)O (stereo not shown) [BSO, buthionine sulfoximine]",phosphorylation at serine 9 of GSK-3β,"[1]; lens capsules after whole lens ex vivo culture with BSO, 48 hr",significantly increased
same,increase of vimentin expression compared to medium alone,[1]; [3],~2 fold
same,increase of αSMA expression compared to medium alone,[1]; [3],over 3.5 fold
same,phosphorylation status of Smad2 and Smad3,"HLE-B3 cells; HLE-B3 cells with or without 500 μM BSO, 24 hr",no remarkable changes
same,"αSMA production, combination with TGFβ2","HLE-B3 cells; HLE-B3 cells, 500 μM BSO combined with 1 ng/ml TGFβ2, 24 hr",synergistic effect
same,phosphorylation at serine 9 of GSK-3β,"HLE-B3 cells; HLE-B3 cells, 500 μM BSO, 24 hr",significantly elevated; also recorded: significantly increased
same,type I collagen expression,"HLE-B3 cells; HLE-B3 cells, 500 μM BSO",Significantly increased; also recorded: significantly elevated
same,vimentin expression,"HLE-B3 cells; HLE-B3 cells, 500 μM BSO",Significantly increased; also recorded: significantly elevated
same,αSMA expression,HLE-B3 cells; [4],increased; also recorded: significantly upregulated
same,αSMA expression,HLE-B3 cells; [5],Significantly increased
same,αSMA expression,"[2]; pLECs, increased concentration of BSO, 24 hr",increases
same,concentration required to stimulate a similar fold of αSMA production,"[2]; primary porcine lens epithelial cells, 24 hr, 100 times lower than in HLE-B3",5 µM
same,cell death,"[2]; primary porcine lens epithelial cells, higher dosages of BSO (>100 μM)",massive cell death and detachment
"COC(=O)/C=C/C(=O)OC [DMF, dimethyl fumarate]",type I collagen expression,"HLE-B3 cells; HLE-B3 cells, 500 μM BSO",Significantly increased; also recorded: significantly elevated
same,vimentin expression,"HLE-B3 cells; HLE-B3 cells, 500 μM BSO",Significantly increased; also recorded: significantly elevated
same,αSMA expression,HLE-B3 cells; [4],increased; also recorded: significantly upregulated
same,αSMA expression,HLE-B3 cells; [5],Significantly increased
Oc1nc(-c2ccc(C(F)(F)F)cc2)nc2c1CSCC2 [XAV939],αSMA production after BSO challenge,[1]; [6],block
same,β-catenin production after BSO challenge,[1]; [6],block
same,αSMA production after BSO challenge,HLE-B3 cells; [7],block
same,β-catenin production after BSO challenge,HLE-B3 cells; [7],block
B1,αSMA expression in lens explant compared to medium alone,lens explant,activated; also recorded: profound elevation
